The source of these data is patent US10039770B2, “Prostaglandin F2Alpha and analogues thereof for treating atrophic cutaneous scarring” (Galderma S.A., priority 2013, dated 2018).

One series deals with synovial fibroblast. As to conditions: in culture; cited from earlier work.
A further series relates to skin (Sc)fibroblasts. As to conditions: exogenous administration; mice with a mutated form of α2AP; cited from earlier work.
The subject of a further series is atrophic cutaneous scar. The series is described as follows: Topical treatment of an atrophic cutaneous scar in a human (case example). Type of series: in vivo. As to conditions: aqueous solution 0.004% topical once daily. The method, then:
FIG. 1 A. depicts a 6 month old atrophic cutaneous scar secondary to dermatologic surgery present on the abdomen of a person prior to treatment. During the 3 to 4 months prior to starting topical treatment with PGF 2α analog, the scar had not qualitatively changed in structure or appearance. […] The scar was then treated with an aqueous solution of topical travoprost 0.004% which was digitally massaged onto the scar surface once daily for several weeks. FIGS. 1B through J depict the appearance of the same scar at one week intervals during the treatment period.

For Prostaglandin F 2α [PGF 2α], the “synovial fibroblast collagen production, cell proliferation and cell migration” value in the series with synovial fibroblast is “stimulated”. Further, the “bleomycin-induced collagen production / fibrosis in mutant (Sc)fibroblast strain” value in the series with skin (Sc)fibroblasts is “reversed the attenuation and this resulted in dermal thickening and fibrosis”.
Regarding transforming growth factor β, the “synovial fibroblast collagen production, cell proliferation and cell migration” value in the series on synovial fibroblast is reported as “not”.
For `CC(C)OC(=O)CCC/C=C\C[C@@H]1[C@@H](/C=C/[C@@H](O)COc2cccc(C(F)(F)F)c2)[C@H](O)C[C@@H]1O` [travoprost], the “Langer lines across the previously scarred skin” value in the series on atrophic cutaneous scar (at 8 weeks) is reported as “normal appearing Langer lines are apparent”. The “surrounding skin: keloid formation, atrophy or pigmentation” value in the series with atrophic cutaneous scar (at all time points) is recorded as “no evidence of keloid formation, atrophy or pigmentation”. Moreover, the other adverse reactions entry with atrophic cutaneous scar (during or after the treatment interval) was “No other adverse reactions were noted”. In the series with atrophic cutaneous scar (over 9 weeks of treatment), the “erythema of the scar” value is on record as “decrease in erythema”; the “transition of the border between the scar tissue and normal surrounding skin” value was “visibly smoother transition of the border between the scar tissue and normal surrounding skin”. In addition, the “fibrosis and thickening of the atrophic areas of the scar” value in the series on atrophic cutaneous scar (person, abdominal scar, over 9 weeks of treatment) was “gradual increase in fibrosis and thickening of the atrophic areas of the scar”.
